Experimental data reported in ChEMBL document CHEMBL2021859, “Practical access to four stereoisomers of naftidrofuryl and their binding affinity towards 5-hydroxytryptamine 2A receptor” (Bioorg Med Chem Lett, 2012).
pKi: −log10 of the molar value. Counter-ions that a name gives are not always drawn.

Target: 5-hydroxytryptamine receptor 2A (Homo sapiens, UniProt P28223)
Test: Displacement of [3H]ketanserin from 5HT2A receptor expressed in HEK293 cells by liquid scintillation spectrophotometry
Assay type: cell-based
Details: for pKi: read-out: Ki; for Ki: read-out: pKi (converted)

Sequence of 5-hydroxytryptamine receptor 2A (P28223 whole entry): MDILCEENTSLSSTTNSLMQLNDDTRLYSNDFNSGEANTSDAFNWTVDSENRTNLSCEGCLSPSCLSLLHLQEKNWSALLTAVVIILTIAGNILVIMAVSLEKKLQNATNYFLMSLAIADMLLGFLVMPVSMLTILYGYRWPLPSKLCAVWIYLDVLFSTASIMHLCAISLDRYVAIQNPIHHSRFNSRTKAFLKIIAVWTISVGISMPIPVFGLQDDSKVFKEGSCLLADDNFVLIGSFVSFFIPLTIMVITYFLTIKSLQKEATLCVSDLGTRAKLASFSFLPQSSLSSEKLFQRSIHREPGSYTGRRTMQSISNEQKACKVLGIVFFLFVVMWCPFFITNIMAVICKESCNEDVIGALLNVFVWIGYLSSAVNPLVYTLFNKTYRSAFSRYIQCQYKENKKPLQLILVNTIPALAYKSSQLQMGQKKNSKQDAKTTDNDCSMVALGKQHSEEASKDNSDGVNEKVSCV

## CCN(CC)CCOC(=O)[C@@H](Cc1cccc2ccccc12)C[C@H]1CCCO1
  pKi: 6.82
  Ki: 145 nM

## CCN(CC)CCOC(=O)C(Cc1cccc2ccccc12)CC1CCCO1 (stereo not given) [NAFRONYL OXALATE]
  pKi: 6.59
  Ki: 331 nM

## CCN(CC)CCOC(=O)[C@H](Cc1cccc2ccccc12)C[C@H]1CCCO1
  pKi: 5.68
  Ki: 2290 nM

## CCN(CC)CCOC(=O)[C@@H](Cc1cccc2ccccc12)C[C@@H]1CCCO1
  pKi: 6.82
  Ki: 282 nM

## CCN(CC)CCOC(=O)[C@H](Cc1cccc2ccccc12)C[C@@H]1CCCO1
  pKi: 6.01
  Ki: 1700 nM
